Laboratory results reported in patent US8349823B2, “Treatment of renal cell carcinoma” (priority 2008, dated 2013).

How the values were obtained:
[1] = tested on: renal cancers not expressing the VHL gene; conditions: xenografted nude mice; cited from earlier work
renal cancer xenografts = conditions: xenografts in nude mice, in some cases; cited from earlier work
[2] = tested on: human renal cell carcinomas (SKRC-52, 786-0, SKRC-17, SKRC-7 and SKRC-21); assay: Viability of human renal cell carcinoma cells for 7 days after 24 h exposure to orellanine; format: cell-based; conditions: 400 μM orellanine for 24 h, then orellanine-free medium, observed six more days
Description: FIG. 1: Observation of the viability of cells from 5 different human renal cell carcinomas (primary tumors and metastases) during 7 days following 24 h of exposure to 400 μM orellanine (100 μg/ml culture medium. Viability is calculated by dividing the number of living cells in treated samples by the number of living cells in control samples (n=6). The gray area in the graph represents the period of orellanine incubation (24 h). The following days the cells were cultured in orellanine-free complete culture medium. The medium was changed at each viability measurement.
The pictures shown in FIGS. 2A and 2B were taken with the same magnification, and one week after incubation with orellanine/vehicle.
Cells harvested from 5 different human renal cell carcinomas (SKRC-52, 786-0, SKRC-17, SKRC-7 and SKRC-21), representing both mother tumors and metastatic growths, were cultured under standard conditions. When approximately 70% confluent and in rapid growth, the cells were exposed to medium containing Orellanine (400 μM) for 24 h.

[3] = tested on: human renal cell carcinomas (786-0 and SKRC7); assay: Dose/response effect of orellanine on renal cell carcinoma cells; format: cell-based; conditions: single 24 h exposure
Description: Cells harvested from 2 different human renal cell carcinomas (SKRC-7, 786-0), representing both mother tumors and metastatic growths, were cultured under standard conditions. When approximately 70% confluent and in rapid growth, the cells were exposed to medium containing different concentrations of Orellanine […] for 24 h.

[4] = tested on: human renal cell carcinoma 786-0; assay: Repeated administration of a lower dose of orellanine, viability; format: cell-based; conditions: for number of viable cells: viability 96 h after first dose
Description: FIG. 4: Effect of repeated administration of a lower dose of orellanine. […] The first case is equivalent to a prolonged exposure of the cells (48 h), whereas the cells in the second case have been allowed to recover in orellanine-free medium for two days between the doses. Viability was measured 96 h after addition of the first orellanine dose.
Cells harvested from the human renal cell carcinoma 786-0 were cultured under standard conditions. When approximately 70% confluent and in rapid growth, the cells were exposed to medium containing a low concentration of Orellanine (20 μg/ml) for 24 h. Then the medium was changed to new medium either containing 20 μg/ml orellanine for 24 h (middle bar) or back to regular, complete medium for 48 h, followed by another 24 h in the presence of 20 μg/ml orellanine (rightmost bar).

[5] = tested on: cell lines and primary cells from numerous human tissues (tubular epithelium, podocytes, mesangial cells, fibroblasts, macrophages, endothelium, intestinal …); assay: Effects of orellanine on other cell types, viability; format: cell-based; conditions: 24 h exposure, concentrations up to 1,000 μg/ml (highest achievable), observed six more days
Description: Cell lines and primary cells originated from numerous human tissues (tubular epithelium, podocytes and mesangial cells from renal tissue, fibroblasts, macrophages, aortic endothelium, microvascular endothelium and umbilical chord endothelium, intestinal epithelium (duodenal, jejunal, ileal and colonic) and chondrocytes) were cultured under standard conditions. When approximately 70% confluent and in stable growth, the cells were exposed for 24 h to medium containing orellanine in concentrations selected in order to achieve a dose response. […] To compensate for any growth retarding effects caused by dilution of the culture medium by the large volume of orellanine solution added, all cells were supplemented with equal volumes of orellanine buffer.

kinase inhibitor p21 = assay: Western blot of cell cycle proteins in renal cancer cells: p21; format: cell-based, human; conditions: 100 μg/ml, harvested 0, 2, 6, 24 h; 786-0 and SKRC-52
Description: (§1) FIG. 5: Effects of orellanine on the cell cycle in renal cell carcinoma (786-0 and SKRC-52) (Western Blot).
(§2) Renal cancer cells, cultured essentially as described in Example 3, were treated with orellanin (100 μg/ml culture medium) for 24 h. During this period cells were harvested after 0, 2, 6 and 24 h exposure. Western blots were performed on the harvested material with antibodies directed against A) the kinase inhibitor p21, B) phosphorylated retinoblastoma protein (a growth stimulating factor), and C) the cdc2 protein which allows the cell to proceed into the M-phase of the cell cycle where the cell divides.

[6] = tested on: phosphorylated retinoblastoma protein; assay: Western blot of cell cycle proteins in renal cancer cells: phosphorylated Rb; format: cell-based, human; conditions: 100 μg/ml, 24 h measurement
Description: as §1, §2

cdc2 protein = assay: Western blot of cell cycle proteins in renal cancer cells: cdc2; format: cell-based, human; conditions: 100 μg/ml, 24 h
Description: as §1, §2

[7] = tested on: phosphorylated (activated) p38; assay: Western blot of apoptosis pathways in renal cancer cells: p38; format: cell-based, human; conditions: 100 μg/ml, 24-h observation period; 786-0
Description: (§3) For ERK 1/2 and p38, the ratios of phosphorylated (f) to total protein should be compared. Cleaved caspase 3 should be compared to the loading control, beta actin.
(§4) Renal cancer cells were cultured and exposed to orellanine according to Example 7 and harvested at various times up to 24 h. The p38 MAPK system, the p53 system, Fas Ligand, Tumor Necrosis Factor alpha (TNF) and cleaved caspase 3 are key factors in apoptotic pathways leading to cell death. Western blotting was used to determine intracellular levels of A) p38, B) cleaved caspase 3, and C) the proliferative factor phosphorylated ERK 1/2.

phosphorylated ERK 1/2 = assay: Western blot of apoptosis pathways in renal cancer cells: ERK 1/2; format: cell-based, human; conditions: 100 μg/ml, up to 24 h; 786-0
Description: as §3, §4

cleaved caspase 3 = assay: Western blot of apoptosis pathways in renal cancer cells: cleaved caspase 3; format: cell-based, human; conditions: 24 h after exposure; 786-0
Description: as §3, §4

PUMA mRNA = assay: Quantitative PCR of apoptosis mediators in renal cancer cells: PUMA; format: cell-based, human; conditions: SKRC-52, vs control cells without orellanine
Fas ligand (FasL) mRNA = assay: Quantitative PCR of apoptosis mediators in renal cancer cells: Fas ligand; format: cell-based, human; conditions: SKRC-52, vs control cells without orellanine
[8] = tested on: Tumor Necrosis Factor alpha (TNF) mRNA; assay: Quantitative PCR of apoptosis mediators in renal cancer cells: TNF; format: cell-based, human; conditions: SKRC-52, vs control cells without orellanine
[9] = tested on: human clear cell cancer (SKRC52); assay: Morphological signs of apoptosis during incubation with orellanine; format: cell-based; conditions: 4 h and 24 h incubation
[10] = tested on: human renal carcinoma cells (SKRC-52); assay: Subcutaneous human renal cell carcinoma in athymic rats; format: in vivo
Description: (§5) Athymic, T cell-deficient rats (RNU, Charles River Laboratories, FRG) are used as a system for in vivo-growth of human renal cell carcinomas. The absence of a T cell-based immune defense in these animals makes them tolerant towards xenografts. One week after arrival in the animal facility 10 animals receive an X-irradiation dosis of 5 Gy in order to suppress also their B cell-mediated response.
(§6) The next day, all animals are equipped with an indwelling catheter for peritoneal dialysis (PD). PD treatment will replace the renal function that is lost as a side-effect upon administration of orellanine.
(§7) One day later, 5 animals are inoculated subcutaneously in the shoulder region with approximately 10×10^6 human renal carcinoma cells (SKRC-52). The 5 remaining animals receive the same amount of cells by intravenous injection. […] At this point 2 animals (controls) in each group are injected i.p. with physiological saline solution and the remaining 3 animals receive 10 mg orellanine/kg b.w. i.p.

[11] = tested on: human renal carcinoma cells (SKRC-52); assay: Intravenously inoculated human renal cell carcinoma in athymic rats; format: in vivo; conditions: 10 mg/kg i.p. then 5 mg/kg i.v. at one and two weeks; terminated another week later
Description: as §5, §6, §7

[12] = Safety of i.v. orellanine during long term treatment with hemodialysis, pigs; conditions: 10 mg/kg initial, then 5 mg/kg after dialysis 3 times a week for 8 weeks
Description: (§8) 5 pigs of the Göttingen minipig strain and 5 dogs of mixed breeding (body weight 10-15 kg) are set up for hemodialysis using equipment designed for children and infants. The animals receive initial doses of 10 mg orellanine/kg b.w. 24 h later, the animals are subjected to a dialysis session of approximately 3 h. After dialysis, the animals are injected with 5 mg orellanine/kg b.w. The dialysis/reinjection procedure is repeated 3 times a week (Monday, Wednesday, Friday) for 8 weeks. Once a week an assessment of the animals' general condition is made. At the end of the experiment all animals are terminated, and specimens for histopathological evaluation are taken from heart, lung, kidney, liver, spleen, small intestine, large intestine, brain, muscle and skin.

[13] = Safety of i.v. orellanine during long term treatment with hemodialysis, dogs; conditions: 10 mg/kg initial, then 5 mg/kg after dialysis 3 times a week for 8 weeks
Description: as §8

renal carcinoma = assay: Treatment of a human patient with advanced renal cell carcinoma; format: in vivo; conditions: 10 daily i.v. injections of 280 mg (4 mg/kg), hemodialysis after each, further series as needed
Description: The initial tumor burden of the patient is determined to be approximately 2 kg. Based on this value, the appropriate daily dose is determined to 280 mg (4 mg/kg at b.w. 70 kg). Before the first injection, the patient is prepared for hemodialysis or peritoneal dialysis since the Orellanine treatment will inevitably destroy healthy renal epithelial tissue along with the killing of the cancer cells, thus leaving the patient without renal function. Two hours after each injection, hemodialysis is started and maintained for 2 hours. […] Optionally, if the disease is unilateral, the unaffected kidney may be surgically removed and preserved during the treatment, and reimplantation attempted after conclusion of the treatment. The progress of the patient is monitored for one month, whereafter additional serial administrations of Orellanine are given as needed to inhibit growth of the renal carcinoma.

cortical renal tissue = conditions: healthy rats; cited from earlier work

CO[C@@H]1[C@H](O)C[C@@H](O[C@@H]2C[C@H](Oc3cc4cc5c(c(O)c4c(O)c3C)C(=O)[C@@H](O[C@H]3C[C@@H](O[C@H]4C[C@@H](O[C@H]6C[C@](C)(O)[C@@H](OC(C)=O)[C@H](C)O6)[C@H](O)[C@@H](C)O4)[C@H](O)[C@@H](C)O3)[C@H]([C@H](OC)C(=O)[C@@H](O)[C@@H](C)O)C5)O[C@H](C)[C@@H]2OC(C)=O)O[C@@H]1C [Chromomycin A3]
tumor growth [1]: significantly retarded tumor growth

Cc1cc(N(CCOS(C)(=O)=O)CCOS(C)(=O)=O)ccc1C=O [NSC-281612]
effect on tumor mass (renal cancer xenografts): apparently complete eradication of the tumor mass

[O-][n+]1ccc(O)c(O)c1-c1c(O)c(O)cc[n+]1[O-] [Orellanine, 3,3′,4,4′-tetrahydroxy-2,2′-bipyridine-N,N′-dioxide]
toxicity to the tested cell types (viability) [2]: highly toxic to all the tested cell types
dose response interval (orellanine dose vs cell death) [3]: 5 to 200 µg/mL
toxic effects of repeated exposure ([4]; repeated exposure at lower limit of the single exposure response interval (20 μg/ml)): further, marked toxic effects
number of viable cells ([4]; second dose 20 μg/ml 24 h after the first dose): strong decrease in the number of viable cells
number of viable cells ([4]; second dose 20 μg/ml at 72 h): considerably smaller, but still significant, effect
effects on viability [5]: None of the tested cell types exhibited any effects on viability
intracellular levels of p21 (kinase inhibitor p21): increased with a maximum around 6 h
phosphorylated forms of the retinoblastoma protein [6]: completely lacking
cdc2 protein level (cdc2 protein): dramatically down-regulated
phosphorylated (activated) p38 [7]: steady increase
phosphorylated ERK 1/2 (phosphorylated ERK 1/2): up-regulation
amount of cleaved caspase-3 (cleaved caspase 3): dramatically increased
PUMA mRNA expression (PUMA mRNA): extreme up-regulation
FasL mRNA expression (Fas ligand (FasL) mRNA): extreme up-regulation
TNF mRNA expression [8]: extreme up-regulation
typical signs of apoptosis, vacuolization and cell shrinkage [9]: evident already after 4 h incubation, and are further aggravated after 24 h
signs of the tumors ([10]; 10 mg/kg i.p. then 5 mg/kg into the tumor site, another 2 weeks later): no signs of the tumors are evident
tumor size relative to the size recorded at the time of injection ([10]; 10 mg/kg i.p., two weeks after first injection): less than 25%
reduction of tumor size ([10]; former control animals, 10 mg/kg into the tumor site, after 2 weeks): more than 75%
tumor burden relative to control animals [11]: less than 10%
behavior and general condition [12]: remain normal
histopathological examination [12]: no tissue damage with the exception of the kidneys where there is widespread tubular damage leading to complete renal failure
behavior and general condition [13]: remain normal
histopathological examination [13]: no tissue damage with the exception of the kidneys where there is widespread tubular damage leading to complete renal failure
renal cancer at the conclusion of the treatment (renal carcinoma): completely eradicated
expression of several key antioxidant genes (cortical renal tissue): dramatically decreased expression
oxidative stress in cortical renal tissue (cortical renal tissue): increased oxidative stress
